Measurements published in ChEMBL document CHEMBL1158949, “Plant metabolites. New compounds and anti-inflammatory activity of Uncaria tomentosa” (1991).
Calls of active or inactive are those of the source. The rule behind the calls is not given here.

What was measured:
Rattus norvegicus [1] = experiment: Inhibition of carrageenan-induced edema in Wistar rat paw at 20 mg/kg, po after 3 hrs; format: functional; parameters: scale not given: the % may be the effect or the level left
Rattus norvegicus [2] = experiment: Inhibition of carrageenan-induced edema in Wistar rat paw at 0.04 mg/kg to 0.51 mg/kg, po; format: functional, organism-based
Rattus norvegicus [3] = experiment: Inhibition of carrageenan-induced edema in Wistar rat paw at 5 mg/kg, po; format: functional, organism-based; parameters: dose 5 mg/kg
Rattus norvegicus [4] = experiment: Inhibition of carrageenan-induced edema in po dosed Wistar rat paw; format: functional

Q: How did the Activity (Rattus norvegicus [1]) turn out when `C[C@H]1[C@H](C)CC[C@]2(C(=O)O)CC[C@]3(C(=O)O[C@@H]4O[C@H](CO)[C@@H](O)[C@H](O)[C@H]4O)C(=CC[C@@H]4[C@@]5(C)CC[C@H](O[C@@H]6O[C@H](C)[C@@H](O)[C@H](O)[C@H]6O)C(C)(C)[C@@H]5CC[C@]43C)[C@H]12` was run?
A: 33%

Q: What about the Activity (Rattus norvegicus [2]) of the same compound?
A: inactive

Q: Which Activity (Rattus norvegicus [2]) does the source give for `C[C@H]1[C@H](C)CC[C@]2(C(=O)O)CC[C@]3(C(=O)O[C@@H]4O[C@H](CO)[C@@H](O)[C@H](O)[C@H]4O)C(=CC[C@@H]4[C@@]5(C)CC[C@H](O[C@@H]6O[C@H](C)[C@H](O)[C@H](O[C@@H]7O[C@H](CO)[C@@H](O)[C@H](O)[C@H]7O)[C@H]6O)C(C)(C)[C@@H]5CC[C@]43C)[C@H]12` here?
A: inactive

Q: For `C[C@H]1[C@H](C)CC[C@]2(C(=O)O)CC[C@]3(C)C(=CC[C@@H]4[C@@]5(C)CC[C@H](O)C(C)(C)[C@@H]5CC[C@]43C)[C@H]12`, which Activity (Rattus norvegicus [2]) is on record?
A: inactive

Q: How did the Activity (Rattus norvegicus [2]) turn out when `C[C@H]1[C@H](C)CC[C@]2(C(=O)O[C@@H]3O[C@H](CO)[C@@H](O)[C@H](O)[C@H]3O)CC[C@]3(C(=O)O)C(=CC[C@@H]4[C@@]5(C)CC[C@H](O[C@@H]6O[C@H](C)[C@H](O)[C@H](O)[C@H]6O)C(C)(C)[C@@H]5CC[C@]43C)[C@H]12` was run?
A: inactive

Q: With `CC1(C)CC[C@]2(C(=O)O)CC[C@]3(C)C(=CC[C@@H]4[C@@]5(C)CC[C@H](O)C(C)(C)[C@@H]5CC[C@]43C)[C@@H]2C1` as the compound, how does the Activity (Rattus norvegicus [1]) read?
A: inactive

Q: What about the Activity (Rattus norvegicus [2]) of the same compound?
A: inactive

Q: For `C[C@H]1[C@H](C)CC[C@]2(C(=O)O[C@@H]3O[C@H](CO)[C@@H](O)[C@H](O)[C@H]3O)CC[C@]3(C(=O)O)C(=CC[C@@H]4[C@@]5(C)CC[C@H](O[C@@H]6O[C@H](C)[C@H](O)[C@H](O[C@@H]7O[C@H](CO)[C@@H](O)[C@H](O)[C@H]7O)[C@H]6O)C(C)(C)[C@@H]5CC[C@]43C)[C@H]12`, which Activity (Rattus norvegicus [2]) is on record?
A: inactive

Q: With `COC(=O)[C@]12CC[C@@H](C)[C@@](C)(O)[C@H]1C1=CC[C@@H]3[C@@]4(C)CC[C@H](O)[C@@](C)(C(=O)OC)[C@@H]4[C@H](O)C[C@@]3(C)[C@]1(C)CC2` as the compound, how does the Activity (Rattus norvegicus [2]) read?
A: inactive

Q: For `C[C@H]1[C@H](C)CC[C@]2(C(=O)O)CC[C@]3(C(=O)O)C(=CC[C@@H]4[C@@]5(C)CC[C@H](O[C@@H]6O[C@H](C)[C@H](O)[C@H](O[C@@H]7O[C@H](CO)[C@@H](O)[C@H](O)[C@H]7O)[C@H]6O)C(C)(C)[C@@H]5CC[C@]43C)[C@H]12`, which Activity (Rattus norvegicus [2]) is on record?
A: inactive

Q: Which Activity (Rattus norvegicus [2]) does the source give for `C[C@H]1[C@H](C)CC[C@]2(C(=O)O)CC[C@]3(C(=O)O[C@@H]4O[C@H](CO)[C@@H](O)[C@H](O)[C@H]4O)C(=CC[C@@H]4[C@@]5(C)CC[C@H](O[C@@H]6O[C@H](C)[C@H](O)[C@H](O)[C@H]6O)C(C)(C)[C@@H]5CC[C@]43C)[C@H]12` here?
A: inactive

Q: With `COc1ccc2c(c1)c(CC(=O)O)c(C)n2C(=O)c1ccc(Cl)cc1` [INDOMETHACIN] as the compound, how does the Activity (Rattus norvegicus [3]) read?
A: Active

Q: And the ED50 (Rattus norvegicus [4])?
A: 0.014 mmol

Q: How did the Activity (Rattus norvegicus [2]) turn out when `C[C@H]1[C@H](C)CC[C@]2(C(=O)O[C@@H]3O[C@H](CO)[C@@H](O)[C@H](O)[C@H]3O)CC[C@]3(C(=O)O)C(=CC[C@@H]4[C@@]5(C)CC[C@H](O[C@@H]6O[C@H](C)[C@@H](O)[C@H](O)[C@H]6O)C(C)(C)[C@@H]5CC[C@]43C)[C@H]12` was run?
A: inactive

Q: How did the Activity (Rattus norvegicus [1]) turn out when `C[C@@H]1CC[C@]2(C(=O)O)CC[C@]3(C)C(=CC[C@@H]4[C@@]5(C)CC[C@H](O)C(C)(C)[C@@H]5[C@H](O)C[C@]43C)[C@@H]2[C@]1(C)O` was run?
A: inactive

Q: And the Activity (Rattus norvegicus [2])?
A: inactive

Q: Which Activity (Rattus norvegicus [2]) does the source give for `C=C[C@H]1[C@H](O[C@@H]2O[C@H](CO)[C@@H](O)[C@H](O)[C@H]2O)OC=C(C(=O)OC)[C@H]1C[C@@H]1N[C@@H](C(=O)O)Cc2c1[nH]c1ccccc21` here?
A: inactive
